# Where two headings read alike, the source gives them in different places.
# Assays:
# Format in all cases: cell-based, human
# NCI-H522 = tested on: NCI-H522
# Experimental: (§1) (aR)-6, (aS)-6, (aS)-iso -6, and (aR)-iso -6 were submitted to the 60 Cell Screen panel and evaluated at 5 doses (100 μM, 10 μM, 1 μM, 0.1 μM, and 0.01 μM). […] The complete report from this submission is available at the publisher’s Web site as a separate Supporting Information file. For COMPARE analysis, TGI levels of response for (aR)-DM-MTC (6) and (aS)-iso-DM-MTC were compared to those of several established tubulin inhibitors previously tested in the NCI-60 screen.
# OVCAR-5 = tested on: OVCAR-5
# Experimental: as §1
# PC-3 = tested on: PC-3
# Experimental: as §1
# RPMI-8226 = tested on: RPMI-8226
# Experimental: as §1
# RXF 393 = tested on: RXF 393
# Experimental: as §1
# SK-MEL-5 = tested on: SK-MEL-5
# Experimental: as §1
# SN12C = tested on: SN12C
# Experimental: as §1
# SNB-75 = tested on: SNB-75
# Experimental: as §1
# SR = tested on: SR
# Experimental: as §1
# TK-10 = tested on: TK-10
# Experimental: as §1
# U251 = tested on: U251
# Experimental: as §1
# UACC-257 = tested on: UACC-257
# Experimental: as §1
# UACC-62 = tested on: UACC-62
# Experimental: as §1
# UO-31 = tested on: UO-31
# Experimental: as §1
structure (smiles),measurement,setting,value
"COc1cc(C)c(-c2ccc(OC)c(=O)cc2C)c(OC)c1OC (single isomer, unassigned) [(aR)-6]",Log10LC50,NCI-H522,> -4.00 Molar
same,Log10TGI,NCI-H522,-5.27 Molar
same,GI50,NCI-H522; Homo sapiens,1.86 µM
same,Log10GI50,NCI-H522; listed as (aR)-DM-MTC,-5.73 Molar
same,Log10GI50,OVCAR-5,-5.36 Molar
same,Log10LC50,OVCAR-5,> -4.00 Molar
same,Log10TGI,OVCAR-5,> -4.00 Molar
same,GI50,OVCAR-5; Homo sapiens,4.37 µM
same,Log10GI50,OVCAR-5; listed as (aR)-DM-MTC,-5.36 Molar
same,Log10GI50,PC-3,-5.64 Molar
same,Log10LC50,PC-3,> -4.00 Molar
same,Log10TGI,PC-3,> -4.00 Molar
same,GI50,PC-3; Homo sapiens,2.29 µM
same,Log10GI50,PC-3; listed as (aR)-DM-MTC,-5.64 Molar
same,Log10GI50,RPMI-8226,-5.39 Molar
same,Log10LC50,RPMI-8226,> -4.00 Molar
same,Log10TGI,RPMI-8226,> -4.00 Molar
same,GI50,RPMI-8226; Homo sapiens,4.07 µM
same,Log10GI50,RPMI-8226; listed as (aR)-DM-MTC,-5.39 Molar
same,Log10GI50,RXF 393,-5.71 Molar
same,Log10LC50,RXF 393,> -4.00 Molar
same,Log10TGI,RXF 393,> -4.00 Molar
same,GI50,RXF 393; Homo sapiens,1.95 µM
same,Log10GI50,RXF 393; listed as (aR)-DM-MTC,-5.71 Molar
same,Log10GI50,SK-MEL-5,-5.50 Molar
same,Log10LC50,SK-MEL-5,> -4.00 Molar
same,Log10TGI,SK-MEL-5,-4.42 Molar
same,GI50,SK-MEL-5; Homo sapiens,3.16 µM
same,Log10GI50,SK-MEL-5; listed as (aR)-DM-MTC,-5.5 Molar
same,Log10GI50,SN12C,-5.46 Molar
same,Log10LC50,SN12C,> -4.00 Molar
same,Log10TGI,SN12C,> -4.00 Molar
same,GI50,SN12C; Homo sapiens,3.47 µM
same,Log10GI50,SN12C; listed as (aR)-DM-MTC,-5.46 Molar
same,Log10GI50,SNB-75,-6.04 Molar
same,Log10LC50,SNB-75,> -4.00 Molar
same,GI50,SNB-75; Homo sapiens,0.91 µM
same,Log10GI50,SNB-75; listed as (aR)-DM-MTC,-6.04 Molar
same,Log10GI50,SR,-6.44 Molar
same,Log10LC50,SR,> -4.00 Molar
same,Log10TGI,SR,> -4.00 Molar
same,GI50,SR; Homo sapiens,0.36 µM
same,Log10GI50,SR; listed as (aR)-DM-MTC,-6.44 Molar
same,Log10GI50,TK-10,-4.18 Molar
same,Log10LC50,TK-10,> -4.00 Molar
same,Log10TGI,TK-10,> -4.00 Molar
same,GI50,TK-10; Homo sapiens,66.1 µM
same,Log10GI50,TK-10; listed as (aR)-DM-MTC,-4.18 Molar
same,Log10GI50,U251,-5.53 Molar
same,Log10LC50,U251,> -4.00 Molar
same,Log10TGI,U251,> -4.00 Molar
same,GI50,"U251; Homo sapiens, U-251",2.95 µM
same,Log10GI50,U251; listed as (aR)-DM-MTC,-5.53 Molar
same,Log10GI50,UACC-257,-5.11 Molar
same,Log10LC50,UACC-257,> -4.00 Molar
same,Log10TGI,UACC-257,> -4.00 Molar
same,GI50,UACC-257; Homo sapiens,7.76 µM
same,Log10GI50,UACC-257; listed as (aR)-DM-MTC,-5.11 Molar
same,Log10GI50,UACC-62,-6.03 Molar
same,Log10LC50,UACC-62,> -4.00 Molar
same,Log10TGI,UACC-62,> -4.00 Molar
same,GI50,UACC-62; Homo sapiens,0.93 µM
same,Log10GI50,UACC-62; listed as (aR)-DM-MTC,-6.03 Molar
same,Log10GI50,UO-31,-5.16 Molar
same,Log10LC50,UO-31,> -4.00 Molar
same,Log10TGI,UO-31,> -4.00 Molar
same,GI50,UO-31; Homo sapiens,6.92 µM
same,Log10GI50,UO-31; listed as (aR)-DM-MTC,-5.16 Molar

# — publication PMC12150326 (The Journal of Organic Chemistry, 2025)
